Source: patent US20120214760A1, “TREATMENT OF URINARY TRACT INFECTIONS WITH ANTIBACTERIAL AMINOGLYCOSIDE COMPOUNDS” (Achaogen, Inc., priority 2009, published 2012)
Converted amounts (≈) assume the structure as drawn.

Experiments:
[1] = tested on: P. aeruginosa ATCC 27853 (APAE001); assay: MIC, CLSI broth microdilution; type: cell-based; settings: Pseudomonas aeruginosa, ATCC27853, read-out: MIC APAE001, Table 1; APAE001 is ATCC27853
Procedure: (§1) Minimum inhibitory concentrations (MIC) were determined by reference Clinical and Laboratory Standards Institute (CLSI) broth microdilution methods per M7-A7 [2006]. Quality control ranges utilizing E. coli ATCC 25922, P. aeruginosa ATCC 27853 and S. aureus ATCC 29213, and interpretive criteria for comparator agents were as published in CLSI M100-S17 [2007]. Briefly, serial two-fold dilutions of the test compounds were prepared at 2× concentration in Mueller Hinton Broth. The compound dilutions were mixed in 96-well assay plates in a 1:1 ratio with bacterial inoculum. The inoculum was prepared by suspension of a colony from an agar plate that was prepared the previous day. Bacteria were suspended in sterile saline and added to each assay plate to obtain a final concentration of 5×10^5 CFU/mL. The plates were incubated at 35° C. for 20 hours in ambient air.

[2] = tested on: E. coli ATCC 25922 (AECO001); assay: MIC, CLSI broth microdilution; type: cell-based; settings: Escherichia coli, ATCC25922, read-out: MIC AECO001, Table 1; AECO001 is ATCC25922
Procedure: as §1

SMILES | MIC [1] [µg/mL] | MIC [2] [µg/mL]
CN[C@@H]1[C@@H](O)[C@@H](O[C@@H]2[C@@H](O)[C@H](O[C@H]3OC(CNCC(O)CCN)=CC[C@H]3N)[C@@H](N)C[C@H]2NC(=O)[C@@H](O)CN)OC[C@]1(C)O (stereo partly drawn) [Example 68, 6′-(2-Hydroxy-4-amino-butyl)-1-(3-amino-2(S)-hydroxy-propionyl)-sisomicin] | 1 to 16 (≈ 1.61 to 25.7 µM) | 1 to 16 (≈ 1.61 to 25.7 µM)
CN[C@@H]1[C@@H](O)[C@@H](O[C@@H]2[C@@H](O)[C@H](O[C@H]3OC(CNC[C@H]4C[C@@H](N)[C@@H](O)C4)=CC[C@H]3N)[C@@H](N)C[C@H]2NC(=O)[C@@H](O)CN)OC[C@]1(C)O [Example 69, 6′-(Methyl-1(R)-amino-2(S)-hydroxy-cyclopent-4(S)-yl)-1-(3-amino-2(S)-hydroxy-propionyl)-sisomicin] | 1 to 16 (≈ 1.54 to 24.7 µM) | < 1
CN[C@@H]1[C@@H](O)[C@@H](O[C@@H]2[C@@H](O)[C@H](O[C@H]3OC(CNCCC4(O)CNC4)=CC[C@H]3N)[C@@H](N)C[C@H]2NC(=O)[C@@H](O)CN)OC[C@]1(C)O [Example 70, 6′-(Ethyl-2-(3-hydroxy-azetidin-3-yl))-1-(3-amino-2(S)-hydroxy-propionyl)-sisomicin] | > 16 | 1 to 16 (≈ 1.58 to 25.2 µM)
CN[C@@H]1[C@@H](O)[C@@H](O[C@@H]2[C@@H](O)[C@H](O[C@H]3OC(CNCC4CC4)=CC[C@H]3N)[C@@H](N)C[C@H]2NC(=O)C(O)C2CNC2)OC[C@]1(C)O (stereo partly shown) [Example 71, 6′-Methylcyclopropyl-1-(2-(azetidin-3-yl)-2-hydroxy-acetyl)-sisomicin] | > 16 | 1 to 16 (≈ 1.63 to 26 µM)
CN[C@@H]1[C@@H](O)[C@@H](O[C@@H]2[C@@H](O)[C@H](O[C@H]3OC(CNC[C@H]4C[C@H](N)C4)=CC[C@H]3N)[C@@H](N)C[C@H]2NC(=O)C(O)C2CNC2)OC[C@]1(C)O (stereo partly drawn) [Example 72, 6′-(Methyl-trans-3-amino-cyclobutyl)-1-(2-(azetidin-3-yl)-2-hydroxy-acetyl)-sisomicin] | 1 to 16 (≈ 1.55 to 24.9 µM) | 1 to 16 (≈ 1.55 to 24.9 µM)
CN[C@@H]1[C@@H](O)[C@@H](O[C@@H]2[C@@H](O)[C@H](O[C@H]3OC(CNCC4CNC4)=CC[C@H]3N)[C@@H](N)C[C@H]2NC(=O)[C@@H](O)CN)OC[C@]1(C)O [Example 73, 6′-(Methyl-azetidin-3-yl)-1-(3-amino-2(S)-hydroxy-propionyl)-sisomicin] | 1 to 16 (≈ 1.66 to 26.5 µM) | 1 to 16 (≈ 1.66 to 26.5 µM)
CN[C@@H]1[C@@H](O)[C@@H](O[C@@H]2[C@@H](O)[C@H](O[C@H]3OC(CNCC4(CN)CC4)=CC[C@H]3N)[C@@H](N)C[C@H]2NC(=O)C(O)C2CNC2)OC[C@]1(C)O (stereo partly shown) [Example 74, 6′-(Methyl-1-aminomethyl-cyclopropyl)-1-(2-(azetidin-3-yl)-2-hydroxy-acetyl)-sisomicin] | > 16 | 1 to 16 (≈ 1.55 to 24.9 µM)
CN[C@@H]1[C@@H](O)[C@@H](O[C@@H]2[C@@H](O)[C@H](O[C@H]3OC(CNCCO)=CC[C@H]3N)[C@@H](N)C[C@H]2NC(=O)C(O)C2CNC2)OC[C@]1(C)O (stereo partly shown) [Example 75, 6′-(2-Hydroxy-ethyl)-1-(2-(azetidin-3-yl)-2-hydroxy-acetyl)-sisomicin] | > 16 | 1 to 16 (≈ 1.65 to 26.5 µM)
CN[C@@H]1[C@@H](O)[C@@H](O[C@@H]2[C@@H](O)[C@H](O[C@H]3OC(CNCCCN)=CC[C@H]3N)[C@@H](N)C[C@H]2NC(=O)C(O)C2CNC2)OC[C@]1(C)O (stereo partly shown) [Example 76, 6′-(3-Amino-propyl)-1-(2-(azetidin-3-yl)-2-hydroxy-acetyl)-sisomicin] | 1 to 16 (≈ 1.62 to 25.9 µM) | 1 to 16 (≈ 1.62 to 25.9 µM)
CN[C@@H]1[C@@H](O)[C@@H](O[C@@H]2[C@@H](O)[C@H](O[C@H]3OC(CNCC(O)CCN)=CC[C@H]3N)[C@@H](N)C[C@H]2NC(=O)C(O)C2CNC2)OC[C@]1(C)O (stereo partly shown) [Example 77, 6′-(2-Hydroxy-4-amino-butyl)-1-(2-(azetidin-3-yl)-2-hydroxy-acetyl)-sisomicin] | 1 to 16 (≈ 1.54 to 24.7 µM) | 1 to 16 (≈ 1.54 to 24.7 µM)
CN[C@@H]1[C@@H](O)[C@@H](O[C@@H]2[C@@H](O)[C@H](O[C@H]3OC(CNC[C@H]4C[C@H](N)C4)=CC[C@H]3N)[C@@H](N)C[C@H]2NC(=O)C2(O)CCNC2)OC[C@]1(C)O (stereo partly drawn) [Example 78, 6′-(Methyl-trans-3-amino-cyclobutyl)-1-(3-hydroxy-pyrrolidin-3-yl-acetyl)-sisomicin] | 1 to 16 (≈ 1.55 to 24.9 µM) | < 1
CN[C@@H]1[C@@H](O)[C@@H](O[C@@H]2[C@@H](O)[C@H](O[C@H]3OC(CNCC4(CN)CC4)=CC[C@H]3N)[C@@H](N)C[C@H]2NC(=O)C2(O)CCNC2)OC[C@]1(C)O (stereo partly shown) [Example 79] | > 16 | 1 to 16 (≈ 1.55 to 24.9 µM)
CN[C@@H]1[C@@H](O)[C@@H](O[C@@H]2[C@@H](O)[C@H](O[C@H]3OC(CNCCCC(O)CN)=CC[C@H]3N)[C@@H](N)C[C@H]2NC(=O)[C@@H](O)CN)OC[C@]1(C)O (stereo partly drawn) [Example 80, 6′-(4-Hydroxy-5-amino-pentyl)-1-(3-amino-2(S)-hydroxy-propionyl)-sisomicin] | < 1 | < 1
CN[C@@H]1[C@@H](O)[C@@H](O[C@@H]2[C@@H](O)[C@H](O[C@H]3OC(CNCCNC4CNC4)=CC[C@H]3N)[C@@H](N)C[C@H]2NC(=O)[C@@H](O)CN)OC[C@]1(C)O [Example 81, 6′-(N-(Azetidin-3-yl)-2-amino-ethyl)-1-(3-amino-2(S)-hydroxy-propionyl)-sisomicin] | > 16 | 1 to 16 (≈ 1.58 to 25.3 µM)
CN[C@@H]1[C@@H](O)[C@@H](O[C@@H]2[C@@H](O)[C@H](O[C@H]3OC(CNCC(O)CN)=CC[C@H]3N)[C@@H](N)C[C@H]2NC(=O)C(O)C2CNC2)OC[C@]1(C)O (stereo partly shown) [Example 82, 6′-(2-Hydroxy-3-amino-propyl)-1-(2-(azetidin-3-yl)-2-hydroxy-acetyl)-sisomicin] | > 16 | 1 to 16 (≈ 1.58 to 25.2 µM)
CN[C@@H]1[C@@H](O)[C@@H](O[C@@H]2[C@@H](O)[C@H](O[C@H]3OC(CNCC4(O)CC(N)C4)=CC[C@H]3N)[C@@H](N)C[C@H]2NC(=O)C(O)C2CNC2)OC[C@]1(C)O (stereo partly shown) [Example 83, 6′-(Methyl-3-amino-1-hydroxy-cyclobutyl)-1-(2-(azetidin-3-yl)-2-hydroxy-acetyl)-sisomicin] | > 16 | 1 to 16 (≈ 1.52 to 24.3 µM)
CN[C@@H]1[C@@H](O)[C@@H](O[C@@H]2[C@@H](O)[C@H](O[C@H]3OC(CN)=CC[C@H]3NCC3CCNC3)[C@@H](N)C[C@H]2NC(=O)[C@@H](O)CCN)OC[C@]1(C)O (stereo partly drawn) [Example 84, 2′-(Methyl-pyrrolidin-3-yl)-1-(4-amino-2(S)-hydroxy-butyryl)-sisomicin] | 1 to 16 (≈ 1.58 to 25.3 µM) | < 1
CN[C@@H]1[C@@H](O)[C@@H](O[C@@H]2[C@@H](O)[C@H](O[C@H]3OC(CN)=CC[C@H]3NCC3CCCN3)[C@@H](N)C[C@H]2NC(=O)[C@@H](O)CCN)OC[C@]1(C)O (stereo partly drawn) [Example 85, 2′-(Methyl-pyrrolidin-2-yl)-1-(4-amino-2(S)-hydroxy-butyryl)-sisomicin] | 1 to 16 (≈ 1.58 to 25.3 µM) | < 1
CNCC(=O)N[C@@H]1CC=C(CN)O[C@@H]1O[C@H]1[C@H](O)[C@@H](O[C@H]2OC[C@](C)(O)[C@H](NC)[C@H]2O)[C@H](NC(=O)[C@@H](O)CCN)C[C@@H]1N [Example 86, 2′-(N-Methyl-amino-acetyl)-1-(4-amino-2(S)-hydroxy-butyryl)-sisomicin] | 1 to 16 (≈ 1.61 to 25.8 µM) | 1 to 16 (≈ 1.61 to 25.8 µM)
CN[C@@H]1[C@@H](O)[C@@H](O[C@@H]2[C@@H](O)[C@H](O[C@H]3OC(CN)=CC[C@H]3NC(=O)CN)[C@@H](N)C[C@H]2NC(=O)[C@@H](O)CCN)OC[C@]1(C)O [Example 87, 2′-(2-Amino-acetyl)-1-(4-amino-2(S)-hydroxy-butyryl)-sisomicin] | 1 to 16 (≈ 1.65 to 26.4 µM) | 1 to 16 (≈ 1.65 to 26.4 µM)
